From publication PMC3409661 (Radiation research, 2012)
Where two headings read alike, the source gives them in different places.

Columns and labels:
[1] = test system: CHO K1 cells; details: reported in one setting; cited from earlier work
[2] = test system: ICR mice; experiment: Mouse radiation survival assay; type: in vivo
[3] = test system: diploid human fibroblasts; experiment: Human cell growth inhibition; type: cell-based; details: PrC-210 in medium for 30 h before cell counting
[4] = test system: ICR mice; experiment: Mouse aminothiol toxicity assay; type: in vivo
[5] = cited from earlier work
[6] = test system: Sprague-Dawley rat dorsal skin; experiment: Rat dorsal skin radiodermatitis assay; type: in vivo
[7] = test system: S. typhimurium strain TA98; type: cell-based, Salmonella typhimurium
[8] = test system: S. typhimurium strain TA100; type: cell-based, Salmonella typhimurium
[9] = pH and disulfide formation of aqueous PrC-210 solutions; type: physicochemical; details: for PrC-210 disulfide in solution: aqueous
[10] = test system: diploid human fibroblasts; experiment: Flow cytometry cell-cycle analysis; type: cell-based
[11] = test system: rat; details: rat model, 0.5× mouse MTD; cited from earlier work
[12] = test system: p21; experiment: Western blot for p21 expression in nuclear extracts; type: cell-based, human; details: 4.1 mM PrC-210 for 30 h vs untreated cells
[13] = test system: supercoiled pUC19 plasmid DNA; experiment: Protection of plasmid DNA against ROS-induced nicking; type: biochemical; details: PrC-210 0–70 mM added before hydroxyl radical generating system
[14] = Distribution of [14C] PrC-210 topically applied to rat skin; details: for Recovery (carcass) / Recovery (skin) = skin (dose site) + skin wash / Recovery (total): 48 h
[15] = test system: ferret; details: ferret model, 0.5× mouse MTD; cited from earlier work
[16] = test system: ICR mice; details: known radioprotectors, value quoted for comparison, no reference given; cited from earlier work
[17] = test system: humans; details: cited from earlier work
[18] = Group 2: 1850 mM dermal, without norepinephrine
[19] = Group 3: 1850 mM dermal, with 300 mM norepinephrine
[20] = 87 μM (so in the source), positive control

## NCCCNCCS [WR-1065, 2-[(aminopropyl)amino]ethanethiol]
[1]
  type of cell cycle block: G2/M cell cycle block

## CNCC(CS)CNC [PrC-210]
[2]; i.p. 211 μg/g BW 30 min before increasing radiation doses, survival to day 35
  dose reduction factor (DRF): 1.6
[2]; i.p. 211 μg/g BW (0.5× MTD best fit) 30 min before 8.63 Gy whole-body radiation
  survival: 98%
[2]; i.p. 252 μg/g BW 30 min before 8.75 Gy (otherwise 100% lethal)
  survival: 100%
[2]; i.p. 252 μg/g BW (0.5× MTD probit) 30 min before 8.63 Gy whole-body radiation
  survival: 100%
[3]
  IC70 dose, inhibition of cell growth: 4.1 mM
[4]; extrapolated from the best fit curve (Fig. 8A)
  i.p. MTD (= i.p. LD10 dose): 422 μg/g BW
[4]; i.p., probit analysis of percentage survival data
  LD10 dose: 504 μg/g BW
[4]; single i.p. 500 μg/g BW
  toxic response: either a transient response in which the mice are sleepy but then rebound over several hours and survive, or they die within 1–2 h
[4]; single i.p. 700 μg/g BW, severe muscle spasm then death within min
  lethality: 100%
[5]
  oral activity: active when taken orally
[6]; 1 to 2 topical applications only
  protection against radiation dermatitis: much less protection
[6]; four topical applications over 2 h before irradiation (Fig. 5F)
  prevention of radiation dermatitis: 98%
[6]; i.p. 200 μg/g BW 30 min before 17.3 Gy
  prevention of radiation dermatitis, systemic administration: complete prevention
[6]; topical 370 mM, thiol plus charged alkyl-amine backbone (Fig. 6)
  radiodermatitis prevention, structure-activity study: 100%
[6]; topical 1500 mM in vehicles containing 75% water
  protection against radiation dermatitis, aqueous vehicle: still conferred protection
[6]; topical application to rat skin before irradiation vs vehicle controls
  prevention of Grade 2–3 radiation dermatitis by increasing topical doses: completely prevented
[6]; topical, at or above 370 mM, 17.3 Gy, scored 13 days after irradiation
  prevention of Grade 3 radiation dermatitis, topical: completely prevented
[6]; topical, vehicle 0:95:5 (ethanol:propylene glycol:water)
  IC100 dose for radiation dermatitis: 1500 mM
[6]; topical, vehicle 50:30:20 (ethanol:propylene glycol:water)
  IC100 dose for radiation dermatitis: 370 mM
[7]; 30 μM
  Colonies/plate (mean ± SD) Strain TA98 −S9: 43 ± 2 Colonies/plate
[7]; 100 μM
  Colonies/plate (mean ± SD) Strain TA98 +S9: 64 ± 4 Colonies/plate
  Colonies/plate (mean ± SD) Strain TA98 −S9: 51 ± 6 Colonies/plate
[7]; 400 μM
  Colonies/plate (mean ± SD) Strain TA98 +S9: 55 ± 3 Colonies/plate
  Colonies/plate (mean ± SD) Strain TA98 −S9: 58 ± 14 Colonies/plate
[7]; 1000 μM
  Colonies/plate (mean ± SD) Strain TA98 +S9: 54 ± 6 Colonies/plate
  Colonies/plate (mean ± SD) Strain TA98 −S9: 53 ± 3 Colonies/plate
[7]; 4100 μM
  Colonies/plate (mean ± SD) Strain TA98 +S9: 55 Colonies/plate
  Colonies/plate (mean ± SD) Strain TA98 −S9: 55 ± 5 Colonies/plate
[7]; 7000 μM
  Colonies/plate (mean ± SD) Strain TA98 +S9: 65 ± 9 Colonies/plate
  Colonies/plate (mean ± SD) Strain TA98 −S9: 51 ± 5 Colonies/plate
[7]; concentrations up to 7 mM
  mutagenicity: frameshift mutations (strain TA98): neither frameshift mutations
[8]; 30 μM
  Colonies/plate (mean ± SD) Strain TA100 +S9: 119 Colonies/plate
  Colonies/plate (mean ± SD) Strain TA100 −S9: 121 ± 8 Colonies/plate
[8]; 100 μM
  Colonies/plate (mean ± SD) Strain TA100 +S9: 127 ± 8 Colonies/plate
  Colonies/plate (mean ± SD) Strain TA100 −S9: 116 ± 22 Colonies/plate
[8]; 400 μM
  Colonies/plate (mean ± SD) Strain TA100 +S9: 144 ± 14 Colonies/plate
  Colonies/plate (mean ± SD) Strain TA100 −S9: 128 Colonies/plate
[8]; 1000 μM
  Colonies/plate (mean ± SD) Strain TA100 +S9: 148 ± 5 Colonies/plate
  Colonies/plate (mean ± SD) Strain TA100 −S9: 101 ± 19 Colonies/plate
[8]; 4100 μM
  Colonies/plate (mean ± SD) Strain TA100 +S9: 115 ± 33 Colonies/plate
  Colonies/plate (mean ± SD) Strain TA100 −S9: 134 ± 20 Colonies/plate
[8]; 7000 μM
  Colonies/plate (mean ± SD) Strain TA100 +S9: 149 ± 18 Colonies/plate
  Colonies/plate (mean ± SD) Strain TA100 −S9: 128 ± 11 Colonies/plate
[8]; concentrations up to 7 mM
  mutagenicity: point mutations (strain TA100): nor point mutations
[9]; HCl salt dissolved in water
  pH on dissolution in water: ~ 3.0
[9]; pH 5.5, 1 week at room temperature in the dark
  PrC-210 disulfide in solution: < 1%
[9]; pH 8.0, 1 week at room temperature in the dark
  PrC-210 disulfide in solution: > 98%
[10]; 4.1 mM PrC-210 30 h, then washout and fresh medium 48 h
  S-phase fraction of cells after washout: 40%
[10]; 4.1 mM PrC-210 for 30 h, control 53%
  S-phase fraction of cells: 8%
[10]; PrC-210-treated normal human fibroblasts
  type of cell cycle block: G1/S cell cycle block
[11]
  hypotension response: nor hypotension response
[12]
  p21 protein level in nuclear extracts: significantly elevated
[13]
  protection of supercoiled plasmid DNA against ROS-induced nicking: complete protection
[14]; 300 g rats, 1.1 mg absorbed, over 48 h (lowest)
  systemic dose after topical application: 3.7 μg/g BW
[14]; Group 1, over 48 h (16.28 mg × 6.7%)
  estimated mass that crossed the skin barrier and entered systemic circulation: 1.1 mg
[14]; Group 1: 370 mM dermal, 16.28 mg applied
  Cmax (radioactivity in plasma): 257 ng-eq/g
[14]; Group 1: 370 mM dermal
  Recovery (carcass): 0.52%
  Recovery (skin) = skin (dose site) + skin wash: 41.54%
  Recovery (total): 49.4%
[14]; [18]
  Recovery (carcass): 1.84%
  Recovery (skin) = skin (dose site) + skin wash: 47.16%
  Recovery (total): 66.0%
[14]; Group 3, over 48 h
  estimated mass that crossed the skin barrier and entered systemic circulation: 6.8 mg
[14]; Group 3: 1850 mM dermal, 81.40 mg applied, with 300 mM norepinephrine
  Cmax (radioactivity in plasma): 726 ng-eq/g
[14]; [19]
  Recovery (carcass): 1.53%
  Recovery (skin) = skin (dose site) + skin wash: 60.46%
  Recovery (total): 70.0%
[14]; after dermal dose
  share of absorbed radioactivity eliminated by the urine: ≥ 90%
[14]; over 48 h following topical administration, across groups
  transfer of topically applied PrC-210 into systemic circulation: 6–15%
[14]; rat blood samples, preliminary analysis (not shown)
  14C cpm in blood remaining soluble after TCA precipitation: less than 10%

## Nc1cccc2cc3ccccc3cc12 [Aminoanthracene, reference compound]
[7]; [20]
  Colonies/plate (mean ± SD) Strain TA98 +S9: 177 Colonies/plate
  Colonies/plate (mean ± SD) Strain TA98 −S9: >1800 Colonies/plate
[8]; [20]
  Colonies/plate (mean ± SD) Strain TA100 +S9: 570 ± 90 Colonies/plate

## NCCCNCCSP(=O)(O)O [amifostine]
[15]
  retch/vomit response: elicits both responses
[16]
  dose reduction factor (DRF): 1.6
[11]
  hypotension response: elicits both responses
[17]; human amifostine use
  systemic toxicities: significant systemic toxicities (nausea/emesis, hypotension/fainting)
[17]; humans
  efficacy when applied topically to skin or mucosa: has not been effective
